For 20 molecules, MIC and Kd results are on record in paper PMC9863409, “Combining the In Silico and In Vitro Assays to Identify Strobilanthes cusia Kuntze Bioactives against Penicillin-Resistant Streptococcus pneumoniae” (Pharmaceuticals, 2023).

In brackets after ≈: the same amount, converted by molar mass.

T3 sequence (A0A0H2US73 entry or part of it): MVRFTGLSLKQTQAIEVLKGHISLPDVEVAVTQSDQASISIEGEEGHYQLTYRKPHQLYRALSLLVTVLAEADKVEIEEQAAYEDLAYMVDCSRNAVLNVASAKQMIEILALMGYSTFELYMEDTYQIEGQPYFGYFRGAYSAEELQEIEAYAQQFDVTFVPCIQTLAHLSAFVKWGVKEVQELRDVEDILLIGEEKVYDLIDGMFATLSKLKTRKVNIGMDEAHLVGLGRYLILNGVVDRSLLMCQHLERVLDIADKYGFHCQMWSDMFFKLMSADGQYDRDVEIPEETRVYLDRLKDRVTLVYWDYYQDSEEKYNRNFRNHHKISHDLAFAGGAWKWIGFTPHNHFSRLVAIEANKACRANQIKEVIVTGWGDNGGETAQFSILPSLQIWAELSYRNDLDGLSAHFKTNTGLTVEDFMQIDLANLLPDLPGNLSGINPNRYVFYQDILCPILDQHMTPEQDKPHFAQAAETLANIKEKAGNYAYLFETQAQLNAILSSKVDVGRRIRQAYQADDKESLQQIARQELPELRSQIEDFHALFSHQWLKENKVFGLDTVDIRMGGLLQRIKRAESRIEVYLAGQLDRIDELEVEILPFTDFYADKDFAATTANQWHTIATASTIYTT

One test concerns T1, Streptococcus pneumoniae PRSP F3983.
T1 construct: F3983 (penicillin-resistant)
The experiment in a line: microbe, parasite or virus in culture. Also noted: MIC test of isolated compounds on penicillin-resistant Streptococcus pneumoniae F3983. An excerpt: 2.4.2. MIC Tests for the Isolated 23 Chemical Compounds on the PRSP F3983 The following supporting information can be downloaded at: https://www.mdpi.com/article/10.3390/ph16010105/s1; Table S1: Proteome_data sheet; Table S2: UPLC-UV-ESI-Q-TOF/MS analysis of S. cusia leaves; Table S3: NMR of 23 isolated compounds and their MICs against PRSP [69, 70, 71, 72, 73, 74, 75, 76, 77, 78, 79, 80, 81, 82, 83, 84, 85, 86, 87, 88, 89, 90, 91]; Table S4: Reverse-docking_active-pockets; Table S5: Reverse-docking_results_Tryptanthrin; Table S6: LMW-Kinetics-affinity_Tryptanthrin; Table S7: Primers and sequences of bgaA, StrH, SP_2141 and SP_2146 of F3983; Table S8: A scheme of Preparation of Isolated Compounds from S. cusia leaves
The molecule `CC(=O)C=CC12OC1(C)CC(O)CC2(C)C` (stereo not drawn) [compound 11, 3β-hydroxy-5α,6α-epoxy-7-megastigmen-9-one] gave an MIC of 400 µg/mL (≈ 1780 µM).
Same read-out and setting: as for `COC(=O)c1ccccc1NC(=O)c1c[nH]c2ccccc12` [compound 8, cephalandole B], the figure is above 800 µg/mL; as for `O=c1c2ccccc2nc2n1CCC2` [compound 20, deoxyvasicinone], above 800 µg/mL.
The same measure, in the same setting: as for `CCCCCCCC/C=C\CCCCCCCC(N)=O` [compound 23, 9(Z)-octadece-nameid], the figure is above 800 µg/mL; as for `CC(=O)C=CC1=C(C)CC(O)CC1(C)C` (single isomer, unassigned; (-)) [compound 9, (-)-3-hydroxy-β-ionone], above 800 µg/mL.
The molecule `CCCCC(CC)COC(=O)c1ccccc1C(=O)OCC(CC)CCCC` (stereo not shown) [compound 6, bis(2-ethylhexyl) benzene-1,2-dicarboxylate] showed an MIC above 800 µg/mL.
`O=C1Cc2ccccc2N1` [compound 4, 1,3-dihydro-2H-indol-2-one]: the MIC amounted to 400 µg/mL (≈ 3000 µM).
Molecule `CC(O)C(=O)Nc1ccccc1O` (stereo not shown) [compound 17, 2-hydroxy-N-(2-hydroxyphenyl)propionamide] returned an MIC above 800 µg/mL.
For the molecule `COc1cc(C(=O)O)ccc1O` [compound 10, 4-hydroxy-5-methoxy-benzoic acid], the MIC was above 800 µg/mL.
`CC(=O)c1ccc(O)cc1` [compound 19, p-hydroxyacetophenone]: the MIC was 200 µg/mL (≈ 1470 µM).
`CC(=O)/C=C/[C@H]1C(C)=C[C@H](O)CC1(C)C` [compound 3, (3R,6R,7E)-3-hydroxy-4,7-megastigmadien-9-one] gave an MIC of 400 µg/mL (≈ 1920 µM).
In turn, `CC(C)COC(=O)c1ccccc1C(=O)OCC(C)C` [compound 7, phthalic acid isodibutyl ester] gave an MIC above 800 µg/mL.
The molecule `O=C1Nc2ccccc2OC1O` (stereo not shown) [compound 16, 2-hydroxy-(2H)-1,4-benzoxazin-3(4H)-one] yielded an MIC above 800 µg/mL.
With `O=C(O)c1ccc(C(=O)O)[nH]1` [compound 5, 1H-pyrrole-2,5-diacarboxylic acid], the MIC was 200 µg/mL (≈ 1290 µM).
Still for that read-out and setting: as for `O=Cc1c[nH]c2ccccc12` [compound 14, 1H-indole-3-carboxadehyde], the figure is above 800 µg/mL.
Same read-out and setting: as for `O=c1c2ccccc2ncn1-c1ccccc1O` [compound 13, 3-(2'-hydroxyphenyl)-4(3H)-quinazolinone], the figure is 400 µg/mL (≈ 1680 µM).
For the molecule `COc1c(O)cc2oc(-c3ccc(O)cc3)cc(=O)c2c1O` [compound 15, hispidulin], the MIC was determined as 200 µg/mL (≈ 666 µM).
With `CC1(C)C[C@H](O)C[C@@]2(C)OC(=O)C=C12` [compound 12, Calendin], the MIC was above 800 µg/mL.
In turn, `NC(=O)c1cccnc1` [compound 21, Nicotinamide] came in with an MIC above 800 µg/mL.

The next test deals with T2, SP_2146 (alpha-fucosidase) (Streptococcus pneumoniae, UniProt A0A0H2US78).
T2 construct: recombinant from PRSP F3983 genomic DNA, pET-28a (+) with N-terminal 6 × His tag
T2 sequence (A0A0H2US78 entry or part of it): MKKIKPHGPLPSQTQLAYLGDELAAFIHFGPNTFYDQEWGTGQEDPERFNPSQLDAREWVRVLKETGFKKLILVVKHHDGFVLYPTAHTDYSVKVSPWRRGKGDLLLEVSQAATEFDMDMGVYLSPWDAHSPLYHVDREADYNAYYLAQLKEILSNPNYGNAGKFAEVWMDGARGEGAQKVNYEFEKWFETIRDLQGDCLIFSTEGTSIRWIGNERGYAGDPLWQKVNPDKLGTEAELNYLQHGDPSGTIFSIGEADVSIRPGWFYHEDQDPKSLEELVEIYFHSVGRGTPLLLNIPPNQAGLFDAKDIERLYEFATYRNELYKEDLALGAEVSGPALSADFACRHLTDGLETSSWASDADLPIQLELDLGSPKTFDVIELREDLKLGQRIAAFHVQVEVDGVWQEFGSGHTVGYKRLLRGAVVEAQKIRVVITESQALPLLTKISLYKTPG
The experiment in a line: SPR (Biacore 8K, CM5 chip, immobilized protein, steady-state affinity). In kind it is binding.
As usually defined, the Kd is the constant that tells how readily two partners part at equilibrium. Read a low Kd as tighter binding. The molecule `O=C1c2ccccc2-n2c1nc1ccccc1c2=O` [Tryptanthrin, Indolo(2,1-b)quinazoline-6,12-dione] displayed a Kd of 8.82 µM.

In another test the target is StrH (exo-beta-D-N-acetylglucosaminidase) (Streptococcus pneumoniae, UniProt P49610). Described as above. In kind it is binding.
Sequence of StrH (exo-beta-D-N-acetylglucosaminidase) (P49610 626-1064): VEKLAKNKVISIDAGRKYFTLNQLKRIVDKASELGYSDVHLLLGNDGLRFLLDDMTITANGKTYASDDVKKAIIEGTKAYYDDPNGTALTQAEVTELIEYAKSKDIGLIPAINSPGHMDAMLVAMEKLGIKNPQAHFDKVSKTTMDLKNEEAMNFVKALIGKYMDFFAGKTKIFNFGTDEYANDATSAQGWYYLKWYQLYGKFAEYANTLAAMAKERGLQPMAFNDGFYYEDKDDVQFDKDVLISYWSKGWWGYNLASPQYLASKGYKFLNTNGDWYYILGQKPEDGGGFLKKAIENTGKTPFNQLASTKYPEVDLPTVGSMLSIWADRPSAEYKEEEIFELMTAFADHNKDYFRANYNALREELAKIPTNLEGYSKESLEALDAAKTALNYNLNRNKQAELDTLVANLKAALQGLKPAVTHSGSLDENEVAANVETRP
For the molecule `O=C1c2ccccc2-n2c1nc1ccccc1c2=O` [Tryptanthrin, Indolo(2,1-b)quinazoline-6,12-dione], binding was characterised by a dissociation constant (Kd) of 7.16 µM.

Another test concerns the target T3, SP_2141 (beta-Hexosaminidase) (Streptococcus pneumoniae, UniProt A0A0H2US73).
T3 construct: recombinant from PRSP F3983 genomic DNA, pET-28a (+) with N-terminal 6 × His tag
Described as above. In kind it is binding.
The molecule `O=C1c2ccccc2-n2c1nc1ccccc1c2=O` [Tryptanthrin, Indolo(2,1-b)quinazoline-6,12-dione] displayed a Kd of 6.43 µM.
